Measurements taken from patent US20090011007A1, “Pharmaceutical Compositions Containing Mixtures of Polymers and Active Agents Poorly Soluble in Water” (Evonik Roehm GmbH, priority 2006, published 2009).
Converted amounts (≈) assume the structure as drawn.

Experiments:
[1] = Determination of the solubility of felodipine at pH 1.2 (orbital shaker, 24 hours, SGFsp, HPLC); format: physicochemical; details: SGFsp medium buffered to pH 1.2, simulated gastric fluid, thermodynamic from solid, SGFsp pH 1.2, 37° C., 10 mg in 20 ml, read-out: solubility of felodipine alone at pH 1.2
Description: Felodipine has a solubility in water of <1 mg/l […]. The solubility for felodipine was determined for comparison in a medium buffered to pH 1.2 (SGFsp pH 1.2). For this purpose, 10 mg were kept in motion at 37° C. on an orbital shaker in 20 ml of medium for 24 hours. The concentration was determined by means of HPLC. For felodipine alone, without inventive formulation, a solubility of 0.5 mg/l was determined.

[2] = cited from earlier work

solubility at 24 h [1]: 0.5 µg/mL (≈ 1.3 µM)
SMILES: CCOC(=O)C1=C(C)NC(C)=C(C(=O)OC)C1c1cccc(Cl)c1Cl (centres unmarked) [felodipine alone, felodipine]
solubility in water [2]: < 1 µg/mL
